Legend:
[1] = test system: broccoli sprout-derived myrosinase; test: Consumption of glucoraphanin by myrosinase as a function of ascorbic acid concentration (Example 3); assay type: biochemical
Description: A […] Interaction Chromatographic (HILIC) method was developed, comprising the following conditions: • Column: Waters BEH Amide, 1.7-μm particle size; 2.1 mm×100 mm; • Mobile Phase: 20% 10 mM Ammonium Acetate, pH 5.0; 80% acetonitrile; • Separation mode: isocratic; • Column Temperature: 70° C.; • Flow Rate: 0.7 mL/min.
About 250 mg of broccoli seed extract containing about 12% (w/w) glucoraphanin were subjected to hydrolysis by a fixed concentration of broccoli sprout-derived myrosinase in the presence of variable concentration of ascorbic acid, ranging from 0 to 600 μmoles/Liter. The reaction mixtures were thermostated at 38° C.; aliquots were withdrawn every 15 minutes for 60 minutes, and concentration of glucoraphanin determined chromatographically. The rate of glucoraphanin consumption was interpreted as the rate its conversion to sulforaphane. Graphical representation of glucoraphanin content reduction as a function of increasing ascorbic acid concentration results in a series of linear plots; the slopes of the linear regression lines reflect the rate of glucoraphanin consumption, in pmoles/minute. It is apparent that in the presence of 600 μmoles/Liter concentration of ascorbic acid, the reaction rate increased 13-fold relative to that which proceeded in the absence of modulatory effects of ascorbic acid.

[2] = test system: myrosinase; test: Equimolar conversion of glucoraphanin to sulforaphane by myrosinase, HPLC (Example 4); assay type: biochemical, broccoli
Description: A two-part experiment was conducted to further elucidate the role of ascorbic acid in modulating myrosinase activity. All solutions were prepared in 20 mM Tris-buffered saline, at pH 7.5, previously identified as an optimal for myrosinase activity; each sample tube had 100 mg of freeze-dried broccoli powder accurately weighed in as a source of myrosinase. Experiment was conducted at 38° C. for 2 hours, with sample aliquots removed in 30-minute increments, and both glucoraphanin and sulforaphane content assessed by HPLC. […] A control sample contained no ascorbic acid, and the enzymatic conversion proceeded unassisted by a co-factor. PART 1. In the presence of the fixed concentration of ascorbic acid, 1 mmol/Liter, an increasing amount of broccoli seed extract (about 12% glucoraphanin, w/w) was added, ranging from 250 mg to 500 mg. PART 2. While keeping the amount of broccoli seed extract fixed at 250 mg, the concentration of ascorbic acid was varied from 0.4 mmol/Liter to 3.8 mmol/Liter.

[3] = GR 250 mg AA 0.0 mM (control), 0 min
[4] = GR 250 mg AA 0.0 mM (control), 30 min
[5] = GR 250 mg AA 0.0 mM (control), 60 min
[6] = GR 250 mg AA 0.0 mM (control), 90 min
[7] = GR 250 mg AA 0.0 mM (control), 120 min

C[S+]([O-])CCCC/C(=N\OS(=O)(=O)O)S[C@@H]1O[C@H](CO)[C@@H](O)[C@H](O)[C@H]1O (stereo partly shown) [GR, 4-methylsulfinylbutyl glucosinolate]
Slope (rate of glucoraphanin consumption) ([1]; ascorbic acid 0 μM): -0.09293 µmol/min
Glucoraphanin content (μmoles GR) ([1]; ascorbic acid 0 μM, 0 min): 93.36 µmol
Glucoraphanin content (μmoles GR) ([1]; ascorbic acid 0 μM, 15 min): 92.24 µmol
Glucoraphanin content (μmoles GR) ([1]; ascorbic acid 0 μM, 30 min): 90.71 µmol
Glucoraphanin content (μmoles GR) ([1]; ascorbic acid 0 μM, 45 min): 89.44 µmol
Glucoraphanin content (μmoles GR) ([1]; ascorbic acid 0 μM, 60 min): 87.79 µmol
Slope (rate of glucoraphanin consumption) ([1]; ascorbic acid 50 μM): -0.286 µmol/min
Glucoraphanin content (μmoles GR) ([1]; ascorbic acid 50 μM, 0 min): 93.36 µmol
Glucoraphanin content (μmoles GR) ([1]; ascorbic acid 50 μM, 15 min): 89.20 µmol
Glucoraphanin content (μmoles GR) ([1]; ascorbic acid 50 μM, 30 min): 84.24 µmol
Glucoraphanin content (μmoles GR) ([1]; ascorbic acid 50 μM, 45 min): 80.30 µmol
Glucoraphanin content (μmoles GR) ([1]; ascorbic acid 50 μM, 60 min): 76.36 µmol
Slope (rate of glucoraphanin consumption) ([1]; ascorbic acid 125 μM): -0.5622 µmol/min
Glucoraphanin content (μmoles GR) ([1]; ascorbic acid 125 μM, 0 min): 93.36 µmol
Glucoraphanin content (μmoles GR) ([1]; ascorbic acid 125 μM, 15 min): 84.52 µmol
Glucoraphanin content (μmoles GR) ([1]; ascorbic acid 125 μM, 30 min): 75.92 µmol
Glucoraphanin content (μmoles GR) ([1]; ascorbic acid 125 μM, 45 min): 68.09 µmol
Glucoraphanin content (μmoles GR) ([1]; ascorbic acid 125 μM, 60 min): 59.41 µmol
Slope (rate of glucoraphanin consumption) ([1]; ascorbic acid 250 μM): -0.7901 µmol/min
Slope (rate of glucoraphanin consumption) ([1]; ascorbic acid 250 μM Filtered): -0.4714 µmol/min
Glucoraphanin content (μmoles GR) ([1]; ascorbic acid 250 μM Filtered, 0 min): 93.36 µmol
Glucoraphanin content (μmoles GR) ([1]; ascorbic acid 250 μM Filtered, 15 min): 86.31 µmol
Glucoraphanin content (μmoles GR) ([1]; ascorbic acid 250 μM Filtered, 30 min): 79.44 µmol
Glucoraphanin content (μmoles GR) ([1]; ascorbic acid 250 μM Filtered, 45 min): 71.94 µmol
Glucoraphanin content (μmoles GR) ([1]; ascorbic acid 250 μM Filtered, 60 min): 65.18 µmol
Glucoraphanin content (μmoles GR) ([1]; ascorbic acid 250 μM, 0 min): 93.36 µmol
Glucoraphanin content (μmoles GR) ([1]; ascorbic acid 250 μM, 15 min): 80.95 µmol
Glucoraphanin content (μmoles GR) ([1]; ascorbic acid 250 μM, 30 min): 69.06 µmol
Glucoraphanin content (μmoles GR) ([1]; ascorbic acid 250 μM, 45 min): 57.63 µmol
Glucoraphanin content (μmoles GR) ([1]; ascorbic acid 250 μM, 60 min): 45.76 µmol
Slope (rate of glucoraphanin consumption) ([1]; ascorbic acid 400 μM): -1.007 µmol/min
Glucoraphanin content (μmoles GR) ([1]; ascorbic acid 400 μM, 0 min): 93.36 µmol
Glucoraphanin content (μmoles GR) ([1]; ascorbic acid 400 μM, 15 min): 78.32 µmol
Glucoraphanin content (μmoles GR) ([1]; ascorbic acid 400 μM, 30 min): 62.78 µmol
Glucoraphanin content (μmoles GR) ([1]; ascorbic acid 400 μM, 45 min): 47.67 µmol
Glucoraphanin content (μmoles GR) ([1]; ascorbic acid 400 μM, 60 min): 33.15 µmol
Slope (rate of glucoraphanin consumption) ([1]; ascorbic acid 600 μM): -1.2 µmol/min
Glucoraphanin content (μmoles GR) ([1]; ascorbic acid 600 μM, 0 min): 93.36 µmol
Glucoraphanin content (μmoles GR) ([1]; ascorbic acid 600 μM, 15 min): 75.02 µmol
Glucoraphanin content (μmoles GR) ([1]; ascorbic acid 600 μM, 30 min): 55.66 µmol
Glucoraphanin content (μmoles GR) ([1]; ascorbic acid 600 μM, 45 min): 37.50 µmol
Glucoraphanin content (μmoles GR) ([1]; ascorbic acid 600 μM, 60 min): 22.09 µmol
Glucoraphanin [2, 3]: 58.02 µmol
Sulforaphane [2, 3]: 3.42 µmol
Glucoraphanin [2, 4]: 48.57 µmol
Sulforaphane [2, 4]: 12.08 µmol
Glucoraphanin [2, 5]: 37.52 µmol
Sulforaphane [2, 5]: 22.27 µmol
Glucoraphanin [2, 6]: 28.58 µmol
Sulforaphane [2, 6]: 33.17 µmol
Glucoraphanin [2, 7]: 15.67 µmol
Sulforaphane [2, 7]: 42.89 µmol
Glucoraphanin ([2]; GR 250 mg AA 0.4 mM, 0 min): 45.66 µmol
Sulforaphane ([2]; GR 250 mg AA 0.4 mM, 0 min): 15.96 µmol
Sulforaphane ([2]; GR 250 mg AA 0.4 mM, 30 min): 62.06 µmol
Sulforaphane ([2]; GR 250 mg AA 0.4 mM, 60 min): 61.01 µmol
Sulforaphane ([2]; GR 250 mg AA 0.4 mM, 90 min): 60.88 µmol
Sulforaphane ([2]; GR 250 mg AA 0.4 mM, 120 min): 56.90 µmol
